Measurements from PMC8395244, “The Oxoglutarate Binding Site and Regulatory Mechanism Are Conserved in Ammonium Transporter Inhibitors GlnKs from Methanococcales” (International Journal of Molecular Sciences, 2021).

What was measured:
[1] = target: T1, MjGlnK1^woT (Methanocaldococcus jannaschii, UniProt Q60381); assay: X-ray crystal structure ([…] Å); format: binding; conditions: co-crystallised with 2 mM ATP, 2 mM 2OG, 2 mM MgCl2; pH 8.5; inter-subunit cleft
T1 construct: gene glnK1; untagged (stop codon before XhoI in pET-24b(+)); codon-optimised gene in E. coli BL21(DE3); circa 12 kDa monomer, trimer; 2J9D/2J9E are earlier structures of this protein (2J9E C-terminally tagged)

[2] = target: T2, MtGlnK2 (Methanothermococcus thermolithotrophicus, UniProt Z9RMX6QOV2); assay: X-ray crystal structure ([…] Å); format: binding; conditions: co-crystallised with 2 mM ATP, 2 mM 2OG, 2 mM MgCl2; pH 6.5; inter-subunit cleft
T2 construct: N-terminal His-tag (pET-28a(+)), tag kept (partially visible); codon-optimised gene in E. coli BL21(DE3); circa 12 kDa monomer, trimer; site between adjacent subunits

T1 sequence (Q60381 whole entry): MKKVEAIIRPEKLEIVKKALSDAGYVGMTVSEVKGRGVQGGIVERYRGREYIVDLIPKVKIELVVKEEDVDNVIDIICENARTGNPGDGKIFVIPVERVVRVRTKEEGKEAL

O=C(O)CCC(=O)C(=O)O [2OG]
X-ray crystal structure (1.20 Å) [1]: MtGlnK2 and MjGlnK1^woT structures, co-crystallized with Mg-ATP and 2OG
X-ray crystal structure (1.16 Å) [2]: MtGlnK2 and MjGlnK1^woT structures, co-crystallized with Mg-ATP and 2OG

Nc1ncnc2c1ncn2[C@@H]1O[C@H](COP(=O)(O)OP(=O)(O)OP(=O)(O)O)[C@@H](O)[C@H]1O [ATP]
X-ray crystal structure (1.20 Å) [1]: MtGlnK2 and MjGlnK1^woT structures, co-crystallized with Mg-ATP and 2OG
X-ray crystal structure (1.16 Å) [2]: MtGlnK2 and MjGlnK1^woT structures, co-crystallized with Mg-ATP and 2OG
